Data from PMC4300400, “Comparative biochemical analysis of three members of the Schistosoma mansoni TAL family: Differences in ion and drug binding properties” (Biochimie, 2015).
Counter-ions that a name gives are not always drawn.

B1: SmTAL1 (Schistosoma mansoni tegumental allergen-like protein 1) (natural protein, UniProt P14202 1-190, looked up)
chain: MATETKLSQMEEFIRAFLEIDADSNEMIDKQELIKYCQKYRLDMKLIDPWIARFDTDKDNKISIEEFCRGFGLKVSEIRREKDELKKERDGKFPKLPPNIEIIAATMSKTKQYEICCQFKEYVDNTSRTGNDMREVANKMKSLLDNTYGRVWQVVLLTGSYWMNFSHEPFLSIQFKYNNYVCLAWRTPSQ
notes: SmTAL1 (Sm22.6), Schistosoma mansoni, GenBank AAA29922.1, Smp_045200.1; also called Sm22.6; source: E. coli, GST-fusion isolated on glutathione-agarose, cleaved with thrombin, free GST removed on Q-Sepharose; not shown: GST, N-terminal, cleaved
B2: SmTAL2 (Schistosoma mansoni tegumental allergen-like protein 2) (natural protein, UniProt P32070 1-184, looked up)
chain: MDSPMEKFIQTYLTLLRDGDETVETSKLSESCRKEKLDMKQVNEWIALFDVDKDQKITFEEFCRGLGLKQNEMRIERNHIKTVQSGREQSLPEGVSIIASTMPKPKQVEVTQLFKDIYNEVKKDPDMNKVVKTFKSELERRYGRVWQVNAVTHSYWASFSHEPFQSIQFQYDNKIILAWRTPSN
notes: SmTAL2 (Sm21.7), Schistosoma mansoni, GenBank AAA74050.1, Smp_086480.1; also called Sm21.7; source: E. coli, GST-fusion isolated on glutathione-agarose, cleaved with thrombin, free GST removed on Q-Sepharose; not shown: GST, N-terminal, cleaved

Tests used:
[1] = biological target: T1, SmTAL1 (Sm22.6) (Schistosoma mansoni, UniProt P14202); assay: differential scanning fluorimetry (Sypro Orange); format: binding; conditions: 250 µM; 0.25 mM drug, 5 μM protein, 1% DMSO, 0.8 mM CaCl2, 50 mM Hepes pH 7.5, 150 mM NaCl; absolute Tm, not a shift (DMSO control in the 1st table, row 5)
T1 construct: gene A12; recombinant, E. coli, N-terminal GST fusion cleaved with thrombin; EF-hand N-terminal plus DLC-like C-terminal domain; dimer
T1 sequence (P14202 1-190): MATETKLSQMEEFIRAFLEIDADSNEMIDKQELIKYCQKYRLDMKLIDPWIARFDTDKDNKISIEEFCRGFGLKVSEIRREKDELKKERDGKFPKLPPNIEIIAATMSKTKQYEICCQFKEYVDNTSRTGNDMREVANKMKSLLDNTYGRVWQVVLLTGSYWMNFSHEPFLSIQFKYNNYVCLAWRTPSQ
Source text: differential scanning fluorimetry (Sypro Orange) on SmTAL1 (Sm22.6)

[2] = biological target: SmTAL3 (Schistosoma mansoni tegumental allergen-like protein 3) (Schistosoma mansoni); assay: cross-linking; BS3 (50, 150, 500 μM) with 10-15 μM protein in buffer R (50 mM Hepes-OH pH 7.5, 150 mM NaCl, 10% v/v glycerol), 37 °C, 35 min; with 0.8 mM EGTA or 0.8 mM EGTA/1.6 mM calcium chloride; analysed by 15% SDS-PAGE
[3] = biological target: T2, SmTAL3 (Sm20.8) (Schistosoma mansoni, UniProt P91804); assay: differential scanning fluorimetry (Sypro Orange); format: binding; conditions: 250 µM; 0.25 mM drug, 7 μM protein, 1% DMSO, 0.8 mM CaCl2, 50 mM Hepes pH 7.5, 150 mM NaCl; absolute Tm, not a shift (DMSO control in the 1st table, row 5)
T2 construct: gene Sm 20.8; recombinant, E. coli, N-terminal GST fusion cleaved with thrombin; EF-hand-like N-terminal plus DLC-like C-terminal domain; dimer and higher oligomers
T2 sequence (P91804 1-181): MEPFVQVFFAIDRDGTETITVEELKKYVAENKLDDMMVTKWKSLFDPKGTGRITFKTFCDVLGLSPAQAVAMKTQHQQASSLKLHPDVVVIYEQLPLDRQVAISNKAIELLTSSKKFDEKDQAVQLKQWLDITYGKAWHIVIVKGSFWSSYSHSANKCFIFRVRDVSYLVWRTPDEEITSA
Source text: differential scanning fluorimetry (Sypro Orange) on SmTAL3 (Sm20.8)

[4] = biological target: T3, SmTAL2 (Sm21.7) (Schistosoma mansoni, UniProt P32070); assay: limited proteolysis protection (trypsin, chymotrypsin); format: binding; conditions: 250 μM drug, 10 μM protein, 1% DMSO, 0.8 mM CaCl2, 37 °C
T3 construct: recombinant, E. coli, N-terminal GST fusion cleaved with thrombin; EF-hand N-terminal plus DLC-like C-terminal domain; dimer
T3 sequence (P32070 1-184): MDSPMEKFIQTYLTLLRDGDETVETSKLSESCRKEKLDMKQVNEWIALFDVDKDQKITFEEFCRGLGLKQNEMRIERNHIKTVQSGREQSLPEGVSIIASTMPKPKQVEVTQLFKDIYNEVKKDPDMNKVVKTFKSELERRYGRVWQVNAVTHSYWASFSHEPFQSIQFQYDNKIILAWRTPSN

[5] = biological target: the molecule itself; assay: cross-linking; BS3 (50, 150, 500 μM) with 10-15 μM protein in buffer R (50 mM Hepes-OH pH 7.5, 150 mM NaCl, 10% v/v glycerol), 37 °C, 35 min; with 0.8 mM EGTA or 0.8 mM EGTA/1.6 mM calcium chloride; analysed by 15% SDS-PAGE

Row | Molecule | melting temperature (Tm) [1] | SmTAL3 [3] | further results
1 | O=C(C1CCCCC1)N1CC(=O)N2CCc3ccccc3C2C1 (centres unmarked) [praziquantel] | 61.7 ± 0.2 °C |  | 
2 | SmTAL3 (Schistosoma mansoni tegumental allergen-like protein 3) (natural protein) |  |  | stoichiometry N [2]: 2
3 | CN(C)CCCN1c2ccccc2Sc2ccc(Cl)cc21 [chlorpromazine] | 61.3 ± 0.3 °C | 74.1 ± 0.1 °C | 
4 | CN1CCN(CCCN2c3ccccc3Sc3ccc(C(F)(F)F)cc32)CC1 [trifluoperazine] | 62.2 ± 0.8 °C | 73.9 ± 0.1 °C | 
5 | NCCCCCCNS(=O)(=O)c1cccc2c(Cl)cccc12 [W7, N-(6-Aminohexyl)-5-chloro-1-naphthalenesulfonamide hydrochloride] | 61.5 ± 0.3 °C | 74.3 ± 0.1 °C | limited proteolysis protection (trypsin, chymotrypsin) [4]: Of the drugs tested, only W7 protected SmTAL2 from limited proteolysis by trypsin or chymotrypsin
6 | B1 |  |  | stoichiometry N [5]: 2
7 | B2 |  |  | stoichiometry N [5]: 2
